No end group written: not given here.
Tests used:
B16 melanoma tumors = assay: Multivalent ligands modulate B16 melanoma tumor growth in mice; assay type: in vivo; details: C57BL or CBF1 mice; S.C. injection remote from tumor, 20-30 mg/kg body weight/day for two weeks, started one week after tumor inoculation
Description: B16 melanoma cells were injected into 7-8 week old female C57BL mice or CBF1 mice, S.C., 2×10^5 cells per mouse, in 0.1 ml volume. One week after the tumor innoculation, the treatment was started by S.C. injection at sites remote from the tumor of the indicated multivalent ligand at a dose 20-30 mg/kg body weight/day for a period of two weeks. Tumors were measured with a dial-caliper and volumes were determined using the formula: (width)^2×length×0.52. Each group (experimental or control) contained 5-6 mice. FIGS. 6-9 depict changes in mean tumor-volume over time.

[1] = tested on: bovine aortic endothelial cells (A19 cells); assay: Proliferation of bovine aortic endothelial cells in vitro (methylene blue staining, O.D. 630 nm); assay type: cell-based; details: increasing concentrations (μg/ml), 72-80 hours incubation, medium with 1 ng/ml basic fibroblast growth factor; relative to untreated cells
Description: The experiments were performed using 96 well, flat bottom, tissue culture microtiter plates. Culture medium was prepared from DMEM, penicillin (100 U/ml), streptomycin (100 μg/ml), glutamine (2 mM), 10% endotoxin free bovine calf serum (Hyclone) and 1 ng/ml of basic fibroblast growth factor (any commericial source).
Bovine aortic endothelial cells (referred to herein as "A19 cells") were obtained by procedures disclosed in Gospodorowicz et al., Proc. Natl. Acad. Sci. USA 73:4120 (1976), the entire teachings of which are incorporated herein by reference. An A19 cell suspension at 25×10^3 cells/ml was prepared in the above described culture medium and distributed 0.160 ml/well (about 4000 endothelial cells/well).
Multivalent ligand peptides Tip-18.40 and Tip-19.40 stock solutions was prepared by diluting a 10 mM solution of the HJ peptide in 100% DMSO with phosphate buffered saline (PBS)containing 0.1% BSA. The concentration of HJ peptide in each stock solution was adjusted to nine times the desired concentration of the HJ peptide in the assay mixture. 0.020 ml of each HJ peptide stock solution was added to the corresponding wells about 2 hours after BCE plating, with six replicates for each concentration. […]
The wells were washed one time with borate buffer (0.1 M, pH 8.5). […] After extracting overnight, the O.D. was read at 630 nm to determine the relative number of cells per well. […]

| Substance | effect on B16 melanoma tumor growth (mean tumor volume over time versus vehicle control) (B16 melanoma tumors) | effect on proliferation of bovine aortic endothelial cells in vitro [1] |
| --- | --- | --- |
| Tip-16.40: four-branch pennant polylysine trimer; four hybrid peptides of SEQ ID NO.: 10 attached via -Gly-Gly- linker (Ac-AYRWRLSHRPKDLYSIVRRADR; not fully specified; printed as Ac-AYRWRLSHRPKDLYSIVRRADR; also: four copies on polylysine core via Gly-Gly linker) | suppressed tumor growth |  |
| Tip-18.40: four-branch pennant polylysine trimer; four hybrid peptides of SEQ ID NO.: 11 attached via -Gly-Gly- linker (Ac-RWRLSHRPKDLYSIVRRADR; not fully specified; printed as Ac-RWRLSHRPKDLYSIVRRADR; also: four copies on polylysine core via Gly-Gly linker) | suppressed tumor growth | inhibit the proliferation |
| Tip-17.40: four-branch pennant polylysine trimer; four hybrid peptides of SEQ ID NO.: 9 attached via -Gly-Gly- linker (Ac-TAYRWRLSHRPKDLYSIVRRADR; not fully specified; printed as Ac-TAYRWRLSHRPKDLYSIVRRADR; also: four copies on polylysine core via Gly-Gly linker) | promoted tumor growth |  |
| Tip-12.40: four-branch pennant polylysine trimer; four peptides of SEQ ID NO.: 7 (endostatin AHR derivative) attached by covalent bond (Ac-TFRAFLSSRLQDLYSIVRRADG; also: four copies on branched polylysine core) | suppressed tumor growth |  |
| Tip-19.40: four-branch pennant polylysine trimer; four hybrid peptides of SEQ ID NO.: 12 attached via -Gly-Gly- linker (Ac-KDFTAYRWRLSHRPKDLYSIVRRADR; not fully specified; printed as Ac-KDFTAYRWRLSHRPKDLYSIVRRADR; also: four copies on polylysine core via Gly-Gly linker) | suppressed tumor growth | inhibit the proliferation |
| Tip-14.40: four-branch pennant polylysine trimer; four TSP-1/endostatin hybrid peptides of SEQ ID NO.: 3 attached by covalent bond (Ac-TFRAFLSSRLQTGFIRVVMYEG; also: four copies on branched polylysine core) | weak, but statistically significant inhibition |  |
| Tip-13.40: four-branch pennant polylysine trimer; four peptides of SEQ ID NO.: 8 (TSP-1 AHR derivative) attached by covalent bond (Ac-AYRWRLSHRPKTGFIRVVMYEG; also: four copies on branched polylysine core) | suppressed tumor growth |  |
| Tip-15.40: four-branch pennant polylysine trimer; four TSP-1/endostatin hybrid peptides of SEQ ID NO.: 4 attached by covalent bond (Ac-AYRWRLSHRPKDLYSIVRRADG; also: four copies on branched polylysine core) | weak, but statistically significant inhibition |  |
